Test results taken from ChEMBL document CHEMBL4261613, “Discovery of a potent orally bioavailable retinoic acid receptor-related orphan receptor-gamma-t (RORγt) inhibitor, S18-000003” (Bioorg Med Chem Lett, 2018).
Converted amounts (≈) assume the structure as drawn.

Key:
[1] = molecular target: T1, Nuclear receptor ROR-gamma (Homo sapiens) (UniProt P51449); experiment: (§1) Transrepression of recombinant human GAL4-DBD fused RORgammat LBD expressed in HEK293 cells after 20 hrs by luciferase reporter gene assay; assay type: cell-based
T1 sequence (whole entry): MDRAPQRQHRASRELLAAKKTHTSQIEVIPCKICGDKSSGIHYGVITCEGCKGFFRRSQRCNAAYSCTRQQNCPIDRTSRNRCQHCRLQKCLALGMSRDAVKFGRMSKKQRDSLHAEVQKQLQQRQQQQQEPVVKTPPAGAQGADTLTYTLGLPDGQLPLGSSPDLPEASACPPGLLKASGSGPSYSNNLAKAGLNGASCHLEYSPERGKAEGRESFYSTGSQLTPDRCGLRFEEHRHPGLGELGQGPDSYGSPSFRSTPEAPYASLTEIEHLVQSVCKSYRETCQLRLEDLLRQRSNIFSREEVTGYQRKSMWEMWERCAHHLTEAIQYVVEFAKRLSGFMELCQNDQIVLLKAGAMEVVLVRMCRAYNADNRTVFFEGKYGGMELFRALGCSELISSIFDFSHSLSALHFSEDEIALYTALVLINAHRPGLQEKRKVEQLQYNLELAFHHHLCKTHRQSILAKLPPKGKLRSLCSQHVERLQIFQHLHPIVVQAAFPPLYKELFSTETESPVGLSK

[2] = molecular target: T2, Nuclear receptor ROR-gamma (Homo sapiens, UniProt P51449); experiment: as §1; assay type: cell-based
T2 sequence (P51449 whole entry): T1 sequence (whole entry)

[3] = molecular target: T3, Nuclear receptor ROR-gamma (Mus musculus) (UniProt P51450); experiment: (§2) Transrepression of recombinant mouse GAL4-DBD fused RORgammat LBD expressed in HEK293 cells after 20 hrs by luciferase reporter gene assay; assay type: cell-based
T3 sequence (whole entry): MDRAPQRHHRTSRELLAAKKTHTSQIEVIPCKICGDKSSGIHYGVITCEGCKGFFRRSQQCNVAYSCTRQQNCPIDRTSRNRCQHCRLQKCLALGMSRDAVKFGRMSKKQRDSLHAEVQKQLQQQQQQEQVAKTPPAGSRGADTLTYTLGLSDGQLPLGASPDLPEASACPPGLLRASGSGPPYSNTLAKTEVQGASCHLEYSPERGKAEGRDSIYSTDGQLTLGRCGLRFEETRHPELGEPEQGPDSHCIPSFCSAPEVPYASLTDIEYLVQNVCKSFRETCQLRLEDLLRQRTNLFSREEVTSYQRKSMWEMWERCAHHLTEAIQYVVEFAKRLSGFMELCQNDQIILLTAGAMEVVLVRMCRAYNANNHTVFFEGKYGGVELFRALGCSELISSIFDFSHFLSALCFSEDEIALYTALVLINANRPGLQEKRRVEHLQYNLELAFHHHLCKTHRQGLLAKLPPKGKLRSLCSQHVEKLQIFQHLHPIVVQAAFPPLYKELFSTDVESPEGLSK

[4] = molecular target: T4, Nuclear receptor ROR-gamma (Mus musculus, UniProt P51450); experiment: as §2; assay type: cell-based
T4 sequence (P51450 whole entry): T3 sequence (whole entry)

[5] = molecular target: T2, Nuclear receptor ROR-gamma; experiment: Displacement of [3H]-Digoxin from recombinant human GST-fused RORgammat LBD after 1 to 4 hrs by scintillation counting method
[6] = molecular target: T4, Nuclear receptor ROR-gamma; experiment: Transrepression of RORgammat in anti-CD3/CD28 stimulated C57BL/6 mouse CD4-positive T cells assessed as suppression of T cell differentiation to Th17 cells by measuring reduction in IL-17A level after 4 days by ELISA
[7] = Stability in human liver microsomes assessed as parent compound remaining after 2 hrs by LC-MS/MS analysis; assay type: ADME, microsome; conditions: read-out: Stability
[8] = Stability in rat liver microsomes assessed as parent compound remaining after 2 hrs by LC-MS/MS analysis; assay type: ADME, microsome; conditions: read-out: Stability
[9] = Solubility of the compound in NaCl/HCl buffer at pH 1.2 by shake-flask method; assay type: physicochemical
[10] = Solubility of the compound in KH2PO4/Na2HPO4 buffer at pH 6.8 by shake-flask method; assay type: physicochemical
[11] = molecular target: T5, Nuclear receptor ROR-alpha (Homo sapiens, UniProt P35398); experiment: Displacement of [3H]T0901317 from recombinant human GST-fused RORalpha LBD after 1 to 4 hrs by microbeta scintillation counting method
T5 sequence (P35398 whole entry): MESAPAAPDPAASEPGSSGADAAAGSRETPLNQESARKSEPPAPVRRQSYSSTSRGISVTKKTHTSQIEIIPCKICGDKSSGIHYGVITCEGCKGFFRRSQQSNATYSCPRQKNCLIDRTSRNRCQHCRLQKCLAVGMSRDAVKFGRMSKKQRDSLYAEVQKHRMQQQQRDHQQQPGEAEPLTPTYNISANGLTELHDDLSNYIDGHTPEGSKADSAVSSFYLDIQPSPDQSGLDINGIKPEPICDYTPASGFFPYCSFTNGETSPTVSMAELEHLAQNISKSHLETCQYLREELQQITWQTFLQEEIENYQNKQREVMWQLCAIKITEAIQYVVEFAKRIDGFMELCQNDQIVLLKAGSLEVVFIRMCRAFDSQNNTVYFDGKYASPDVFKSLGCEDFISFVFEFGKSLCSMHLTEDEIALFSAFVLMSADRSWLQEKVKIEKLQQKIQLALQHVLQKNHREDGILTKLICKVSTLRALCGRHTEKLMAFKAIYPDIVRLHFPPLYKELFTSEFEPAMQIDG

[12] = molecular target: T6, Nuclear receptor ROR-beta (Homo sapiens, UniProt Q92753); experiment: Transrepression of recombinant human GAL4-DBD fused RORbeta LBD expressed in HEK293 cells after 20 hrs by luciferase reporter gene assay; assay type: cell-based
T6 sequence (Q92753 whole entry): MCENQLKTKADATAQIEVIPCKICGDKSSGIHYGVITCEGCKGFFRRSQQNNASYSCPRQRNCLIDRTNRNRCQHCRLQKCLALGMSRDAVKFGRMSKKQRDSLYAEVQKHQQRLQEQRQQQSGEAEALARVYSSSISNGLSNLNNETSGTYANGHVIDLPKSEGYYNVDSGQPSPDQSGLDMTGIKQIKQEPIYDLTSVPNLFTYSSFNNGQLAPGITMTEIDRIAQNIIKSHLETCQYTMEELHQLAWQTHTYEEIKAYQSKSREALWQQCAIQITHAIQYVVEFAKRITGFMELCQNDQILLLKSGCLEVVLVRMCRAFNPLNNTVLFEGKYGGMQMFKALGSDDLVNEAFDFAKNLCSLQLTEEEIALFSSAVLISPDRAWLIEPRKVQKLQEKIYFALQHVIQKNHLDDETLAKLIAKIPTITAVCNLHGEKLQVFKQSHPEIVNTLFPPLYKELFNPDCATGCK

[13] = molecular target: T7, Oxysterols receptor LXR-alpha (Homo sapiens, UniProt Q13133); experiment: Transrepression of recombinant human GAL4-DBD fused LXRalpha LBD expressed in HEK293 cells after 20 hrs by luciferase reporter gene assay; assay type: cell-based
T7 sequence (Q13133 whole entry): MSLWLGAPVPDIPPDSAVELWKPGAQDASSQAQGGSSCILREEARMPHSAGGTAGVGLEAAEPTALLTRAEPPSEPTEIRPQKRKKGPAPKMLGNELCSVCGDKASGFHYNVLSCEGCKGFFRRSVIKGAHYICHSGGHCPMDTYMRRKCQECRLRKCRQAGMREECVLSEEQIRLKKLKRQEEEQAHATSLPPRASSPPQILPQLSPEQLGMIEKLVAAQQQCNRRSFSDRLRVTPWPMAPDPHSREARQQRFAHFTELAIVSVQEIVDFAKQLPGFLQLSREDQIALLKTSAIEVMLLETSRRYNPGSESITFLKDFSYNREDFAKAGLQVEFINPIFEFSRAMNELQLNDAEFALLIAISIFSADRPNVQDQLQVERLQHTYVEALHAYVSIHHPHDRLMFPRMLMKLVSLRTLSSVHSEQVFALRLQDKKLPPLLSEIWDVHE

[14] = molecular target: T8, Oxysterols receptor LXR-beta (Homo sapiens, UniProt P55055); experiment: Transrepression of recombinant human GAL4-DBD fused LXRbeta LBD expressed in HEK293 cells after 20 hrs by luciferase reporter gene assay; assay type: cell-based
T8 sequence (P55055 whole entry): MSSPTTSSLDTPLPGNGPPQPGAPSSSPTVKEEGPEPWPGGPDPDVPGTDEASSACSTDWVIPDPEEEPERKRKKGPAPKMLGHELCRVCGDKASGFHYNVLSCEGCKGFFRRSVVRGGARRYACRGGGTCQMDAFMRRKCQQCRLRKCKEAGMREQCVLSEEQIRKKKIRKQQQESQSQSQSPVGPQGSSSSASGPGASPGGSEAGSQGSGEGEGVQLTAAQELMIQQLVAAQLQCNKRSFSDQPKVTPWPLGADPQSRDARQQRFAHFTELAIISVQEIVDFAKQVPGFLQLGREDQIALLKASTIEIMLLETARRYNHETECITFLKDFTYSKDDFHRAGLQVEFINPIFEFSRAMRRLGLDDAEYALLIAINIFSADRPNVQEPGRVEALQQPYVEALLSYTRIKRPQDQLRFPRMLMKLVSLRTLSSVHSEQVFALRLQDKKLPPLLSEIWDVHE

Efficacy [1]: 93% | IC50 [2]: 33 nM | Efficacy [3]: 78% | IC50 [4]: 550 nM | IC50 [5]: < 30 nM | IC50 [6]: 1100 nM | remaining at 2 h [7]: 75% | remaining at 2 h [8]: 70% | solubility thermodynamic [9]: 39 µM (≈ 18.8 µg/mL) | solubility thermodynamic [10]: 31 µM (≈ 15 µg/mL) | IC50 [11]: > 10000 nM | IC50 [12]: > 10000 nM | EC50 [13]: > 30000 nM | EC50 [14]: > 30000 nM
SMILES: CCS(=O)(=O)c1ccc(CC(=O)Nc2ccc(C(C)(C)C(=O)Nc3ccc(F)cc3)cc2)cc1
